This experiment has as its system M21-L12 melanoma cells. As to the kind of experiment: Ad-mediated gene delivery after pretreatment of cells with PI3K inhibitors. It is filed as cell-based, human. The method, then:
Efficient Ad internalization via αv integrins requires activation of PI3K, a key cellular signaling molecule. […] Ad mediated gene delivery was analyzed 48 hours post infection.

Experimental findings from patent US20020164333A1, “Bifunctional molecules and vectors complexed therewith for targeted gene delivery” (The Scripps Research Institute, priority 2000, published 2002) are described below.

Consider `O=c1cc(N2CCOCC2)oc2c(-c3ccccc3)cccc12` [LY294002], for which the “inhibition of Ad-mediated gene delivery” value (cells pretreated 30 min with wortmannin (30 nM) or LY292004 (20 μM) before Ad.RSV.βgal complexed with D or DT, 48 hours post infection) was around 50%.
Broadly, the inhibition is the change of the read-out against control, counted positive when it falls. As to `COC[C@H]1OC(=O)c2coc3c2[C@@]1(C)C1=C(C3=O)[C@@H]2CCC(=O)[C@@]2(C)C[C@H]1OC(C)=O` [Wortmannin, wortmannin], for the setting “Homo sapiens, read-out: inhibition of Ad-mediated gene delivery”, the inhibition at 0.03 µM was around 70%.
